Assay results as given in article PMC8699718, “A structurally conserved site in AUP1 binds the E2 enzyme UBE2G2 and is essential for ER-associated degradation” (PLoS Biology, 2021).

Experiments:
Format in all cases: cell-based, human
gp78:UBE2G2 = test: co-IP of gp78 with transfected MYC-UBE2G2, +/- oleic acid; conditions: WT HT1080, oleic acid loading, three experiments, reviewer response
Text: (§1) page 10: Major points: The phenotypes they show are strong but it would be nice to see the initial observations repeated in other cell lines. […] We have now generated HEK293 AUP1 KO cell lines and have recapitulated our initial results on domain requirements for both NHK and RI332 (Fig 1G-H, Fig 2C-D). We also provide data that E2 loss similarly occurs in these HEK293 AUP1 KO cells and that E2 stability can be restored by GFP-G2BR (Fig S5D and S5E). To extend our observations beyond HT1080 and HEK293, we also generated and examined M17 AUP1 KO cells, and observed a similar destabilization of UBE2G2 with loss of AUP1. […] Although, it is possible that the stability of UBE2G2 is due to the level of AUP1 in these cells, it is not clear whether the G2BR of AUP1 is always available for UBE2G2 binding and whether AUP1 acts as a sink for UBE2G2 when associated with lipid droplets. […] They can then compare the 'pulldown levels' of AUP1 and gp78 to the amounts of protein in the reference binding domains in (Figure 6). […] Alternatively, NHK degradation may be reduced under increasing Oleic acid levels but UBE2G2 binding is not affected. […] We have now loaded cells with oleic acid and assessed E2 levels and NHK degradation (Fig S5A and Fig S5B). […]

AUP1:UBE2G2 = test: co-IP of AUP1 with transfected MYC-UBE2G2, +/- oleic acid; conditions: WT HT1080, oleic acid loading, three experiments, reviewer response
Text: as §1

UBE2G2 = UBE2G2 levels in HT1080 cells loaded with oleic acid; conditions: HT1080, 200 μM oleic acid
Procedure: Plasmid transfections were carried out using PolyFect (Qiagen, Germantown, MD, USA) or JetPrime (Polyplus, New York, NY, USA) reagents. For CHX chase experiments, approximately 24 hours following plasmid transfection, cells were treated with 50 μg/mL CHX in complete media for the indicated times. For lipid droplet experiments, cells were treated with 200 μM oleic acid (Millipore Sigma) for 16 hours, beginning 24 hours following transfection. For assessment of GFP^u stability, cells were cultured in DMEM supplemented with 10% FetalPlex animal serum complex (Gemini Bio, West Sacramento, CA, USA) and treated with 50 μM emetine for the indicated times to inhibit protein synthesis. […] Clarified lysates or immunoprecipitates were denatured by heating in NuPAGE LDS Sample Buffer with β-mercaptoethanol at 70°C for 10 minutes, resolved on Bis-Tris polyacrylamide gels in NuPAGE MES or MOPS SDS running buffer and analyzed by western blotting. Proteins were detected using Clarity Western ECL (Bio-Rad, Hercules, CA, USA), Radiance Q (Azure Biosystems, Dublin, CA, USA), or SuperSignal Femto West (Thermo Scientific, Waltham, MA, USA) ECL reagents and a c280 Imager (Azure Biosystems) or autoradiography. […]

CCCCCCCC/C=C\CCCCCCCC(=O)O [oleic acid]
decrease of gp78 co-association with MYC-UBE2G2 (gp78:UBE2G2): ~ 20% | decrease of AUP1 co-association with MYC-UBE2G2 (AUP1:UBE2G2): ~ 27% | effect on UBE2G2 levels (UBE2G2): affected neither UBE2G2 levels
